Key:
BRD2 BD2 = target: T1, BRD2 BD2 (Homo sapiens, UniProt P25440, Y113A); assay: TR-FRET competition assay, BRD2 BD2; assay type: binding; conditions: TR-FRET competition with Reference Compound X; range stated for the listed group; read-out: mean pIC50 in the BRD2 BD2 assay (converted)
T1 construct: BRD2 (1-473) (Y113A) and (Y386A); made in house; host or cells: E. coli (pET15b)

BRDT BD1 = target: T2, BRDT BD1 (Homo sapiens, UniProt Q58F21, Y309A); assay: TR-FRET competition assay, BRDT BD1; assay type: binding; conditions: TR-FRET competition with Reference Compound X; range stated for the listed group; read-out: mean pIC50 in the BRDT BD1 assay (converted)
T2 construct: BRDT (1-397) (Y66A) and (Y309A); made in house; host or cells: E. coli (pET28a)

BRD3 BD2 = target: T3, BRD3 BD2 (Homo sapiens, UniProt Q15059, Y73A); assay: TR-FRET competition assay, BRD3 BD2; assay type: binding; conditions: TR-FRET competition with Reference Compound X; range stated for the listed group; read-out: mean pIC50 in the BRD3 BD2 assay (converted)
T3 construct: BRD3 (1-435) (Y73A) and (Y348A); made in house; host or cells: E. coli (pET15b)
T3 sequence (Q15059 1-435 Y73A): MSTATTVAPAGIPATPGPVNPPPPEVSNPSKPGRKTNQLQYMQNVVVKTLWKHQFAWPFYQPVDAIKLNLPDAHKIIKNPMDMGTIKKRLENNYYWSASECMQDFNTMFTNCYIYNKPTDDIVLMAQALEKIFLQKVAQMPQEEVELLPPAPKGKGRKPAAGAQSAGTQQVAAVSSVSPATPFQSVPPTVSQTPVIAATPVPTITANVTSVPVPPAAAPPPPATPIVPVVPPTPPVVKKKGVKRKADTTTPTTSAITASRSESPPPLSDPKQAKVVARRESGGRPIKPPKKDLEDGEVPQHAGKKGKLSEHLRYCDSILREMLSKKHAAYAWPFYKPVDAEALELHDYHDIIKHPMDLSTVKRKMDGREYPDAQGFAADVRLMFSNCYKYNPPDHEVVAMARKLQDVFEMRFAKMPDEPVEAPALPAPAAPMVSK

BRD2 BD1 = target: T4, BRD2 BD1 (Homo sapiens, UniProt P25440, Y386A); assay: TR-FRET competition assay, BRD2 BD1; assay type: binding; conditions: TR-FRET competition with Reference Compound X; range stated for the listed group; read-out: mean pIC50 in the BRD2 BD1 assay (converted)
T4 construct: BRD2 (1-473) (Y113A) and (Y386A); made in house; host or cells: E. coli (pET15b)
T4 sequence (P25440 1-473 Y386A): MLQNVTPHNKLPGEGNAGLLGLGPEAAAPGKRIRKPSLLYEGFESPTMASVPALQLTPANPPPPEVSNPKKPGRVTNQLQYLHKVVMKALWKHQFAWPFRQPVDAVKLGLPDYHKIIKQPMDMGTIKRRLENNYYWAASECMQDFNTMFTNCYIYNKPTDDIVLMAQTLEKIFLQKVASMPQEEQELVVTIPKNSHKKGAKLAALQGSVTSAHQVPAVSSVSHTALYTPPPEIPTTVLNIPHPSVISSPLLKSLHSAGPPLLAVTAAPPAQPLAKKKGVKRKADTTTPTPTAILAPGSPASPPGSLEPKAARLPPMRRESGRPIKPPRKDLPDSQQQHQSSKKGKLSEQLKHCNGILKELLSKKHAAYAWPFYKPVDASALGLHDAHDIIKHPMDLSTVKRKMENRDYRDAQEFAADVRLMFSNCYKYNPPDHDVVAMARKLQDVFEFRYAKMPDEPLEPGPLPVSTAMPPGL

BRDT BD2 = target: T5, BRDT BD2 (Homo sapiens, UniProt Q58F21, Y66A); assay: TR-FRET competition assay, BRDT BD2; assay type: binding; conditions: TR-FRET competition with Reference Compound X; range stated for the listed group; read-out: mean pIC50 in the BRDT BD2 assay (converted)
T5 construct: BRDT (1-397) (Y66A) and (Y309A); made in house; host or cells: E. coli (pET28a)

BRD3 BD1 = target: T6, BRD3 BD1 (Homo sapiens, UniProt Q15059, Y348A); assay: TR-FRET competition assay, BRD3 BD1; assay type: binding; conditions: TR-FRET competition with Reference Compound X; range stated for the listed group; read-out: mean pIC50 in the BRD3 BD1 assay (converted)
T6 construct: BRD3 (1-435) (Y73A) and (Y348A); made in house; host or cells: E. coli (pET15b)
T6 sequence (Q15059 1-435 Y348A): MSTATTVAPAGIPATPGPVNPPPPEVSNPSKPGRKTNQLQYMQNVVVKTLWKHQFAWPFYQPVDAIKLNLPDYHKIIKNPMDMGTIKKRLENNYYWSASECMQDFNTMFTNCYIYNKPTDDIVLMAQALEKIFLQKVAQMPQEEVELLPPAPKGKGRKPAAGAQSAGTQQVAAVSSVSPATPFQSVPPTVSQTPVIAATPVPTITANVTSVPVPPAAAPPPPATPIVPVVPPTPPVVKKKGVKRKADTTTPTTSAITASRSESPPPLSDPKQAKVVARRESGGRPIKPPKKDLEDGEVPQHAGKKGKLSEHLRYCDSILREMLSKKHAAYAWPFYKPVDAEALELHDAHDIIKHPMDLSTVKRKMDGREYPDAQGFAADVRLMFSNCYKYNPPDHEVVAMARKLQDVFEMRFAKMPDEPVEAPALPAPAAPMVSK

MCP-1 production = assay: LPS induced MCP-1 production from human whole blood; assay type: cell-based; conditions: human whole blood, LPS 200 ng/mL, 18-24 hours; read-out: mean pIC50, LPS induced MCP-1 production (converted)
[1] = system: TNP-KLH induced Immunoglobulin-1 (IgG1) production; assay: TNP-KLH induced IgG1 production mouse assay; assay type: in vivo; conditions: for Day 14 IgG1: male CD1 mice
BRD4 BD1 = target: T7, BRD4 BD1 (Homo sapiens, UniProt O60885, Y390A); assay: TR-FRET competition assay, BRD4 BD1; assay type: binding; conditions: TR-FRET competition with Reference Compound X, single mutant tandem protein; read-out: mean pIC50 in the BRD4 BD1 assay (converted)
T7 construct: BRD4 (1-477) (Y97A) and (Y390A); made in house; host or cells: E. coli (pET15b)

BRD4 BD2 = target: T8, BRD4 BD2 (Homo sapiens, UniProt O60885, Y97A); assay: TR-FRET competition assay, BRD4 BD2; assay type: binding; conditions: TR-FRET competition with Reference Compound X, single mutant tandem protein; read-out: mean pIC50 in the BRD4 BD2 assay (converted)
T8 construct: BRD4 (1-477) (Y97A) and (Y390A); made in house; host or cells: E. coli (pET15b)

[2] = system: double mutant tandem BET proteins (BRD2, BRD3, BRD4, BRDT); assay: Fluorescence Polarisation binding of Reference Compound X to mutant tandem BET proteins; set-up: species or system human

T1 sequence (P25440 1-473 Y113A): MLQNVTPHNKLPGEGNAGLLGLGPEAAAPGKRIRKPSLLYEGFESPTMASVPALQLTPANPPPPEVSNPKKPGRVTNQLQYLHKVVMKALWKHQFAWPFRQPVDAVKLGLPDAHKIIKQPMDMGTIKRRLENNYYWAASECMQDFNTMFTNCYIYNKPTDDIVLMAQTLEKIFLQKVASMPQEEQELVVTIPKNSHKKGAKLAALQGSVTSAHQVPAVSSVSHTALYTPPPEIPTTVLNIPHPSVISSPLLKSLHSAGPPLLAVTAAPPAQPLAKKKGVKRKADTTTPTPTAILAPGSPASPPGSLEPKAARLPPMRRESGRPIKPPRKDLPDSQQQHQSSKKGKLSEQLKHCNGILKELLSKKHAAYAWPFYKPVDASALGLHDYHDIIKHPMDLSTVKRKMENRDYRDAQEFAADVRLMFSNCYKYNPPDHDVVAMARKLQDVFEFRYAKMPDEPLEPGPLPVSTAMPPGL

Row | SMILES | IC50 (BRD2 BD2) [nM] | IC50 (BRDT BD1) [nM] | IC50 (BRD2 BD1) [nM] | IC50 (BRDT BD2) [nM] | other results
1 | Cc1cc(-c2nc(Cl)cn2CC2CCCOC2)cn(C)c1=O (single isomer, unassigned) [Example 29, 5-(4-chloro-1-((tetrahydro-2H-pyran-3-yl)methyl)-1H-imidazol-2-yl)-1,3-dimethylpyridin-2(1H)-one] | 1000 to 50100 | 39.8 to 12600 | 12.6 to 7940 | 2000 to 25100 | IC50 (BRD3 BD2): 251 to 1000 nM; IC50 (BRD3 BD1): 20 to 79.4 nM
2 | Cc1cc(-c2nccn2CC(C)C)cn(C)c1=O [Example 5, 5-(1-isobutyl-1H-imidazol-2-yl)-1,3-dimethylpyridin-2(1H)-one] | 1000 to 50100 | 39.8 to 12600 | 12.6 to 7940 | 2000 to 25100 | –
3 | Cc1cc(-c2nccn2CC2CCOCC2)cn(C)c1=O [Example 6, 1,3-dimethyl-5-(1-((tetrahydro-2H-pyran-4-yl)methyl)-1H-imidazol-2-yl)pyridin-2(1H)-one] | 1000 to 50100 | 39.8 to 12600 | 12.6 to 7940 | 2000 to 25100 | –
4 | Cc1cc(-c2ncc[nH]2)cn(C)c1=O [Example 1, 5-(1H-imidazol-2-yl)-1,3-dimethylpyridin-2(1H)-one] | 1000 to 50100 | 39.8 to 12600 | 12.6 to 7940 | > 50100 | –
5 | Cc1cc(-c2nc(C(=O)O)cn2CC2CCOCC2)cn(C)c1=O [Example 35, 2-(1,5-dimethyl-6-oxo-1,6-dihydropyridin-3-yl)-1-((tetrahydro-2H-pyran-4-yl)methyl)-1H-imidazole-4-carboxylic acid] | – | – | – | – | IC50 (MCP-1 production): > 20000 nM
6 | Cc1cc(-c2nc(Cl)cn2CC2CCOCC2)cn(C)c1=O [Example 30, 5-(4-chloro-1-((tetrahydro-2H-pyran-4-yl)methyl)-1H-imidazol-2-yl)-1,3-dimethylpyridin-2(1H)-one] | – | – | – | – | % reduction in IgG1 from vehicle ([1]; day 14, 1.5 mg/kg BID oral): 0%; % reduction in IgG1 from vehicle ([1]; day 14, 5.0 mg/kg BID oral, ***P<0.01): 86*** %; % reduction in IgG1 from vehicle ([1]; day 14, 15 mg/kg BID oral, ***P<0.01): 99*** %; Day 14 IgG1 ([1]; 1.5 mg/kg BID oral, 14 days): 5.01 ± 3.30 µg/mL; Day 14 IgG1 ([1]; 5.0 mg/kg BID oral, 14 days): 0.85 ± 1.18 µg/mL; Day 14 IgG1 ([1]; 15 mg/kg BID oral, 14 days): 0.03 ± 0.03 µg/mL; adverse side effects during in life phase ([1]; male CD1 mice, 1.5, 5 or 15 mg/kg BID oral, 14 days): No adverse side effects were observed; IC50 (BRD3 BD1): 20 to 79.4 nM
7 | COCC(COC)n1cc(Cl)nc1-c1cc(C)c(=O)n(C)c1 [Example 22, 5-(4-chloro-1-(1,3-dimethoxypropan-2-yl)-1H-imidazol-2-yl)-1,3-dimethylpyridin-2(1H)-one] | – | – | – | – | IC50 (BRD4 BD1): 50.1 nM; IC50 (BRD4 BD2): 2000 nM; IC50 (MCP-1 production): 100 nM
8 | Cc1cc(-c2nccn2CC2CC2)cn(C)c1=O [Example 3, 5-(1-(cyclopropylmethyl)-1H-imidazol-2-yl)-1,3-dimethylpyridin-2(1H)-one] | 1000 to 50100 | 39.8 to 12600 | 12.6 to 7940 | 2000 to 25100 | –
9 | Cc1cc(-c2nccn2CC2CCCCO2)cn(C)c1=O (racemic) [Example 7, rac-1,3-dimethyl-5-(1-((tetrahydro-2H-pyran-2-yl)methyl)-1H-imidazol-2-yl)pyridin-2(1H)-one] | 1000 to 50100 | 39.8 to 12600 | 12.6 to 7940 | 2000 to 25100 | –
10 | CC(=O)N1CCCC(Cn2cc(Cl)nc2-c2cc(C)c(=O)n(C)c2)C1 (single isomer, unassigned) [Example 25, 5-(1-((1-acetylpiperidin-3-yl)methyl)-4-chloro-1H-imidazol-2-yl)-1,3-dimethylpyridin-2(1H)-one] | 1000 to 50100 | 39.8 to 12600 | 12.6 to 7940 | 2000 to 25100 | IC50 (BRD3 BD2): 251 to 1000 nM; IC50 (BRD3 BD1): 20 to 79.4 nM
11 | COc1ccc2c(c1)C(c1ccc(Cl)cc1)=N[C@@H](CC(=O)NCCCCCNC(=O)CCCCCC1(C)/C(=C/C=C/C=C/C3=[N+](CCCCS(=O)(=O)O)c4ccc(S(=O)(=O)O)cc4C3(C)C)N(CCCCS(=O)(=O)[O-])c3ccc(S(=O)(=O)O)cc31)c1nnc(C)n1-2 (stereo partly drawn) [Reference Compound X] | – | – | – | – | reduction in Kd versus non mutated, wild type tandem BET proteins [2]: > 1000 fold

Reference: US20190175571A1, “IMIDAZOLE DERIVATIVES AND THEIR USE IN THE TREATMENT OF AUTOIMMUNE OR INFLAMMATORY DISEASES OR CANCERS” (GLAXOSMITHKLINE INTELLECTUAL PROPERTY (NO.2) LIMITED, priority 2016, published 2019)
